From ChEMBL document CHEMBL2429743, “Synthesis and antitumor properties of novel curcumin analogs” (Med Chem Res, 2013)
Activity calls are given as the source filed them. The calls are words filed in the database; no cut-off is given here.

How the values were obtained:
Bcap37 [1] = assay: Cytotoxicity against human Bcap37 cells after 72 hrs by MTT assay; details: Bcap37, 72 h
MGC-803 [2] = assay: cells; details: Homo sapiens, MGC-803, 72 h
Description: Cytotoxicity against human MGC803 cells after 72 hrs by MTT assay

PC-3 [3] = assay: cells; details: Homo sapiens, PC-3, 72 h
Description: Cytotoxicity against human PC3 cells after 72 hrs by MTT assay

[4] = Selectivity index, ratio of IC50 for mouse NIH3T3 cells to IC50 for human MGC803 cells; type: functional
[5] = Selectivity index, ratio of IC50 for mouse NIH3T3 cells to IC50 for human Bcap37 cells; type: functional
[6] = Selectivity index, ratio of IC50 for mouse NIH3T3 cells to IC50 for human PC3 cells; type: functional
MGC-803 [7] = assay: Induction of apoptosis in human MGC803 cells assessed as early and late apoptosis ratio at 10 uM after 24 hrs by annxinV-FITC/propidium iodide staining-based flow cytometry; type: functional
MGC-803 [8] = assay: Induction of apoptosis in human MGC803 cells assessed as early and late apoptosis ratio at 5 uM after 24 hrs by annxinV-FITC/propidium iodide staining-based flow cytometry; type: functional
MGC-803 [9] = assay: Induction of apoptosis in human MGC803 cells assessed as early and late apoptosis ratio at 1 uM after 24 hrs by annxinV-FITC/propidium iodide staining-based flow cytometry; type: functional
MGC-803 [10] = assay: Induction of apoptosis in human MGC803 cells assessed as early and late apoptosis ratio at 10 uM after 12 hrs by annxinV-FITC/propidium iodide staining-based flow cytometry; type: functional
MGC-803 [11] = assay: Induction of apoptosis in human MGC803 cells assessed as early and late apoptosis ratio at 5 uM after 12 hrs by annxinV-FITC/propidium iodide staining-based flow cytometry; type: functional
MGC-803 [12] = assay: Induction of apoptosis in human MGC803 cells assessed as early and late apoptosis ratio at 1 uM after 12 hrs by annxinV-FITC/propidium iodide staining-based flow cytometry; type: functional
MGC-803 [13] = assay: Induction of apoptosis in human MGC803 cells assessed as early and late apoptosis ratio at 10 uM after 6 hrs by annxinV-FITC/propidium iodide staining-based flow cytometry; type: functional
MGC-803 [14] = assay: Induction of apoptosis in human MGC803 cells assessed as early and late apoptosis ratio at 5 uM after 6 hrs by annxinV-FITC/propidium iodide staining-based flow cytometry; type: functional
MGC-803 [15] = assay: Induction of apoptosis in human MGC803 cells assessed as early and late apoptosis ratio at 1 uM after 6 hrs by annxinV-FITC/propidium iodide staining-based flow cytometry; type: functional
MGC-803 [16] = assay: Induction of apoptosis in human MGC803 cells assessed as DNA fragmentation at 10 uM after 12 hrs by EB staining-based agarose gel electrophoresis relative to control; type: functional, cell-based
MGC-803 [17] = assay: Induction of apoptosis in human MGC803 cells assessed as chromatin condensation at 10 uM after 12 hrs by Hoechst 33258 staining-based fluorescence microscopic analysis; type: functional, cell-based
MGC-803 [18] = assay: Induction of apoptosis in human MGC803 cells assessed as smaller nuclei at 10 uM after 12 hrs by Hoechst 33258 staining-based fluorescence microscopic analysis; type: functional, cell-based
Bcap37 [19] = assay: Induction of apoptosis in human Bcap37 cells assessed as chromatin condensation at 10 uM after 12 hrs by Hoechst 33258 staining-based fluorescence microscopic analysis; type: functional, cell-based
Bcap37 [20] = assay: Induction of apoptosis in human Bcap37 cells assessed as smaller nuclei at 10 uM after 12 hrs by Hoechst 33258 staining-based fluorescence microscopic analysis; type: functional, cell-based
PC-3 [21] = assay: Induction of apoptosis in human PC3 cells assessed as chromatin condensation at 10 uM after 12 hrs by Hoechst 33258 staining-based fluorescence microscopic analysis; type: functional, cell-based
PC-3 [22] = assay: Induction of apoptosis in human PC3 cells assessed as smaller nuclei at 10 uM after 12 hrs by Hoechst 33258 staining-based fluorescence microscopic analysis; type: functional, cell-based

| SMILES | IC50 (Bcap37 [1]) [µM] | IC50 (MGC-803 [2]) [µM] | IC50 (PC-3 [3]) [µM] | further results |
| --- | --- | --- | --- | --- |
| CC(=O)/C=C/c1ccc(Oc2ncnc3ccccc23)cc1 | 28.9 | 18.4 | 21.3 | – |
| COc1cccc2c1C(=O)c1c(O)c3c(c(O)c1C2=O)C[C@@](O)(C(=O)CO)C[C@@H]3O[C@H]1C[C@H](N)[C@H](O)[C@H](C)O1 [DOXORUBICIN] | 1.9 | 0.74 | 1.01 | Ratio IC50 [4]: <2; Ratio IC50 [5]: <2; Ratio IC50 [6]: <2 |
| COc1ccc(OC)c(/C=C/C(=O)/C=C/c2ccc(Oc3ncnc4ccccc34)cc2)c1 | 7.81 | 2.01 | 2.96 | Ratio IC50 [4]: 6.57; Ratio IC50 [5]: <2; Ratio IC50 [6]: 4.46 |
| Cc1cccc2c(Oc3ccc(/C=C/C(=O)/C=C/c4ccc(Cl)cc4)cc3)ncnc12 | 12.3 | 8.1 | 8.79 | – |
| O=C(/C=C/c1ccc(F)cc1)/C=C/c1ccc(Oc2ncnc3ccccc23)cc1 | 8.53 | 3.84 | 5.62 | – |
| Cc1nn(C)c(Cl)c1/C=C/C(=O)/C=C/c1ccc(Oc2ncnc3c(C)cccc23)cc1 | 21.3 | 11.6 | 16.4 | – |
| COc1ccccc1/C=C/C(=O)/C=C/c1ccc(Oc2ncnc3c(C)cccc23)cc1 | 9.26 | 3.76 | 5.17 | – |
| O=C(/C=C/c1ccc(Oc2ncnc3ccccc23)cc1)/C=C/c1ccc(Cl)cc1Cl | 10.8 | 2.77 | 4.57 | – |
| CC[C@@]1(O)C(=O)OCc2c1cc1n(c2=O)Cc2cc3cc(O)ccc3nc2-1 [HYDROXYCAMPTOTHECIN] | – | – | – | Activity (MGC-803 [7]): 24.5%; Activity (MGC-803 [8]): 7.6%; Activity (MGC-803 [9]): 4.7%; Activity (MGC-803 [10]): 8.6%; Activity (MGC-803 [11]): 5.8%; Activity (MGC-803 [12]): 2%; Activity (MGC-803 [13]): 3%; Activity (MGC-803 [14]): 1.8%; Activity (MGC-803 [15]): 1.2%; Activity (MGC-803 [16]): Active; Activity (MGC-803 [17]): Active; Activity (MGC-803 [18]): Active; Activity (Bcap37 [19]): Active; Activity (Bcap37 [20]): Active; Activity (PC-3 [21]): Active; Activity (PC-3 [22]): Active |
